In ChEMBL document CHEMBL3120161, “Antimycobacterial activity of nitrogen heterocycles derivatives: bipyridine derivatives. Part III” (Eur J Med Chem, 2014):
Values after ≈ are worked out from the molar mass of the structure shown.

Key:
Format in all cases: functional
[1] = test system: Mycobacterium tuberculosis; test: Antimycobacterial activity against ofloxacin-resistant Mycobacterium tuberculosis H37Rv SRI 4000 at MIC after 7 days by broth microdilution assay relative to control
[2] = test system: Mycobacterium tuberculosis; test: Antimycobacterial activity against rifampin-resistant Mycobacterium tuberculosis H37Rv SRI 1367 after 7 days by broth microdilution assay; conditions: H37Rv SRI 1367, 168 h
[3] = test system: Mycobacterium tuberculosis; test: Antimycobacterial activity against isoniazid-resistant Mycobacterium tuberculosis H37Rv SRI 1369 after 7 days by broth microdilution assay; conditions: H37Rv SRI 1369, 168 h
[4] = test system: Mycobacterium tuberculosis; test: Antimycobacterial activity against ofloxacin-resistant Mycobacterium tuberculosis H37Rv SRI 4000 after 7 days by broth microdilution assay; conditions: H37Rv SRI 4000, 168 h
[5] = test system: Mycobacterium tuberculosis; test: Antimycobacterial activity against rifampin-resistant Mycobacterium tuberculosis H37Rv SRI 1367 at MIC after 7 days by broth microdilution assay relative to control
[6] = test system: Mycobacterium tuberculosis; test: Antimycobacterial activity against isoniazid-resistant Mycobacterium tuberculosis H37Rv SRI 1369 at MIC after 7 days by broth microdilution assay relative to control

Compound	inhibition (INH) [1]	MIC [2]	MIC [3]	MIC [4]	inhibition (INH) [5]	inhibition (INH) [6]
CCOC(=O)c1cc(C(=O)c2ccccc2)n2ccc(-c3cc[n+](CC(=O)c4ccc(OC)cc4)cc3)cc12.[Br-]	61%	1.17 µg/mL	4.69 µg/mL	1.17 µg/mL	65%	60%
NNC(=O)c1ccncc1 [ISONIAZID]		0.02 µg/mL (≈ 0.146 µM)			92%	
CO[C@H]1/C=C/O[C@@]2(C)Oc3c(C)c(O)c4c(O)c(c(/C=N/N5CCN(C)CC5)c(O)c4c3C2=O)NC(=O)/C(C)=C\C=C\[C@H](C)[C@H](O)[C@@H](C)[C@@H](O)[C@@H](C)[C@H](OC(C)=O)[C@@H]1C [RIFAMPIN]	80%		0.02 µg/mL (≈ 0.0243 µM)	0.05 µg/mL (≈ 0.0608 µM)		56%
